This is an account of results in PMC9545004, “Transglutaminase 2 affinity and enzyme‐substrate intermediate stability as determining factors for T‐cell responses to gluten peptides in celiac disease” (European Journal of Immunology, 2022).

The structures appear in SMILES notation.

What is called IC50 is the concentration needed to halve the response being measured.

The subject of data set [1] is TCR-transfectant cells specific for DQ2.5-glia-α2. Briefly: Inhibition by primary amines of activation of DQ2.5-glia-α2-specific T cells by TG2-specific B cells, IL-2 ELISA. The following applies: for IC50: 5 µM N-α-gliadin 33-mer, TG2, CaCl2, amine 0-1000 µM, IL-2 ELISA. The format is cell-based. An excerpt:
(§1) Murine A20 B lymphoma cells engineered to express either the celiac patient‐derived TG2‐specific BCR 679‐14‐E06 or the non‐TG2‐specific BCR 693‐2‐F02 as human IgD are previously described. For B‐cell/T‐cell collaboration assays, we used A20 BCR transfectants also transduced to express HLA‐DQ2.5 [27]. Murine BW58α^–β^– cells were retrovirally transduced to express human CD4 as well as the celiac patient‐derived gluten‐specific TCR from a DQ2.5‐glia‐γ1‐reactive T‐cell clone (TCC 4.32) as previously described. The generation of TCR transfectants expressing DQ2.5‐glia‐α2‐reactive TCR (TCC 364.14) and DQ2.5‐glia‐ω2‐reactive TCR (clone 737.30) have been described previously.
The B‐cell/T‐cell collaboration assays were set up as previously described. To compare the uptake and presentation of different gluten peptides to T cells, A20 cells (5 mill/mL) expressing the TG2‐specific BCR (679‐14‐E06) and HLA DQ2.5 were incubated with recombinant TG2 (final 3 µg/mL) and varying amounts of N‐α‐gliadin 20‐mer, N‐ω‐gliadin 19‐mer, or N‐γ‐gliadin 21‐mer in RPMI supplemented with 2 mM CaCl2. After a 30 min incubation at 37°C the cells were washed with 1% FCS/RPMI and resuspended in 5% FCS/RPMI to give a final 1.5 million cells/mL (150 000/well) followed by 2 h incubation at 37°C. Next, TCR‐transfectant cells specific for either DQ2.5‐glia‐α2, DQ2.5‐glia‐ω2, or DQ2.5‐glia‐γ1 were added (25 000/well), followed by overnight incubation at 37°C. The next day, IL‐2 concentration was measured in the culture supernatant by ELISA as previously described. The responsiveness of different TCR transfectants was assessed in the same way, but without the 30 min incubation with TG2, and using the synthetic deamidated peptides (D‐α‐gliadin 20‐mer, D‐ω‐gliadin 17‐mer, and D‐γ‐gliadin 21‐mer). To assess how TG2 secondary substrate affects peptide uptake and presentation to T cells, TG2‐specific A20 cells expressing DQ2.5 were incubated with TG2, CaCl2, 5 µM N‐ω‐gliadin 34‐mer, or 5 µM N‐α‐gliadin 33‐mer in the presence of primary amines at increasing concentrations (0‐1000 µM), before the addition of TCR‐transfectant cells specific for the DQ2.5‐glia‐α2 or DQ2.5‐glia‐ω2 epitopes. The dose‐response curve fitting to find IC50 was done using the “[Inhibitor] vs. response” equation in GraphPad Prism 8.3.0. To examine whether primary amines directly affect the B cells, TG2‐specific A20 cell expressing DQ2.5 were incubated with primary amines for 30 min and washed, before addition of 2 µM D‐ω‐gliadin 34‐mer, followed by incubation with DQ2.5‐glia‐ω2 TCR transfectants.
In general terms: In an ELISA, binding on a coated surface is turned into a signal by an enzyme label.

Data set [2] has as its system TG2-specific A20 cells expressing DQ2.5 and DQ2.5-glia-ω2 TCR transfectants. Nature of the data set: Effect of primary amines on T-cell response to deamidated gluten peptide (off-target/toxicity control). It counts as cell-based, Murine A20 B cells and BW58α–β– cells. The conditions noted are these: 30 min pre-incubation of A20 cells with amine, then D-ω-gliadin 34-mer and DQ2.5-glia-ω2 TCR transfectants; IL-2; Figure S6. The procedure: The B‐cell/T‐cell collaboration assays were set up as previously described. To compare the uptake and presentation of different gluten peptides to T cells, A20 cells (5 mill/mL) expressing the TG2‐specific BCR (679‐14‐E06) and HLA DQ2.5 were incubated with recombinant TG2 (final 3 µg/mL) and varying amounts of N‐α‐gliadin 20‐mer, N‐ω‐gliadin 19‐mer, or N‐γ‐gliadin 21‐mer in RPMI supplemented with 2 mM CaCl2. After a 30 min incubation at 37°C the cells were washed with 1% FCS/RPMI and resuspended in 5% FCS/RPMI to give a final 1.5 million cells/mL (150 000/well) followed by 2 h incubation at 37°C. Next, TCR‐transfectant cells specific for either DQ2.5‐glia‐α2, DQ2.5‐glia‐ω2, or DQ2.5‐glia‐γ1 were added (25 000/well), followed by overnight incubation at 37°C. The next day, IL‐2 concentration was measured in the culture supernatant by ELISA as previously described. The responsiveness of different TCR transfectants was assessed in the same way, but without the 30 min incubation with TG2, and using the synthetic deamidated peptides (D‐α‐gliadin 20‐mer, D‐ω‐gliadin 17‐mer, and D‐γ‐gliadin 21‐mer). […]
or T cells in our cellular assays. […] T-cell activation was assessed b y ELISA quant ification of IL-2 secreted into the cell culture medium. […]

The subject of data set [3] is TCR-transfectant cells specific for DQ2.5-glia-α2 or DQ2.5-glia-ω2. Briefly: Inhibition by primary amines of gluten-specific T-cell stimulation via TG2-specific B cells, both epitopes. The format is cell-based. The following applies: native α-gliadin 33-mer and ω-gliadin 34-mer, IL-2 production, Table S2, read-out: IC50, inhibition of T-cell stimulation (range).
Excerpt: as §1
The B‐cell/T‐cell collaboration assays were set up as previously described. […] The next day, IL‐2 concentration was measured in the culture supernatant by ELISA as previously described. The responsiveness of different TCR transfectants was assessed in the same way, but without the 30 min incubation with TG2, and using the synthetic deamidated peptides (D‐α‐gliadin 20‐mer, D‐ω‐gliadin 17‐mer, and D‐γ‐gliadin 21‐mer). […]

Where [4] appears, read: DQ2.5-glia-α2, replicate Figure S5A.
[5] abbreviates: DQ2.5-glia-α2, replicate Figure S5B.
[6] abbreviates: logIC50, DQ2.5-glia-α2, Figure 5.
Where [7] appears, read: logIC50, DQ2.5-glia-α2, replicate Figure S5A.
Where [8] appears, read: logIC50, DQ2.5-glia-α2, replicate Figure S5B.

For `NCCCCCNC(=O)CCCC[C@@H]1SC[C@@H]2NC(=O)N[C@@H]21` [5-BP, 5‐biotinamido‐pentylamine], the IC50 in data set [1] (DQ2.5-glia-α2, Figure 5) was 42.7 µM; in data set [1] (DQ2.5-glia-α2, mean), 53.3 µM; in data set [1] (setting [4]), 23.7 µM; in data set [1] (setting [5]) it was 93.6 µM; in data set [3], 27 to 58 µM. Moreover, the logIC50 is reported as 1.63 in data set [1] (DQ2.5-glia-α2, Figure 5); 1.66 in data set [1] (DQ2.5-glia-α2, mean); 1.37 in data set [1] (setting [4]); 1.97 in data set [1] (setting [5]). For the same molecule, the “log 95% CI lower limit” value in data set [1] (setting [6]) is reported as 1.48; in data set [1] (logIC50, DQ2.5-glia-α2, mean) it was 1.39; in data set [1] (setting [7]), 1.15; in data set [1] (setting [8]), 1.54. In addition, the “log 95% CI upper limit” value in data set [1] (setting [6]) is on record as 1.78; in data set [1] (logIC50, DQ2.5-glia-α2, mean), 1.93; in data set [1] (setting [7]), 1.60; in data set [1] (setting [8]) it was 2.43. Also, the “toxic effect on B cells or T cells in cellular assays” value in data set [2] was “no toxic effect”.

`NCCCNCCCCNCCCN` [spermine]: the concentration for half-maximal inhibition (IC50) was 77.3 µM in data set [1] (DQ2.5-glia-α2, Figure 5); 58 µM in data set [1] (DQ2.5-glia-α2, mean); 17.7 µM in data set [1] (setting [4]); 78.9 µM in data set [1] (setting [5]); 27 to 58 µM in data set [3]. The logIC50 in data set [1] (DQ2.5-glia-α2, Figure 5) stood at 1.89; in data set [1] (DQ2.5-glia-α2, mean), 1.68; in data set [1] (setting [4]), 1.25; in data set [1] (setting [5]) it was 1.90. Moreover, the “log 95% CI lower limit” value in data set [1] (setting [6]) stood at 1.53; in data set [1] (logIC50, DQ2.5-glia-α2, mean) it was 1.25; in data set [1] (setting [7]), 0.638; in data set [1] (setting [8]), 1.59. Also, the “log 95% CI upper limit” value in data set [1] (setting [6]) is reported as 2.27; in data set [1] (logIC50, DQ2.5-glia-α2, mean) it was 2.11; in data set [1] (setting [7]), 1.83; in data set [1] (setting [8]), 2.22. In data set [2], the “toxic effect on B cells or T cells in cellular assays” value was “no toxic effect”.
